Where two headings read alike, the source gives them in different places.
Assays:
TBK1 = target: T1, TBK1 (Homo sapiens, UniProt Q9UHD2); assay: TBK Biochemical Assay; conditions: read-out: TBK1 IC50
T1 sequence (Q9UHD2 1-729): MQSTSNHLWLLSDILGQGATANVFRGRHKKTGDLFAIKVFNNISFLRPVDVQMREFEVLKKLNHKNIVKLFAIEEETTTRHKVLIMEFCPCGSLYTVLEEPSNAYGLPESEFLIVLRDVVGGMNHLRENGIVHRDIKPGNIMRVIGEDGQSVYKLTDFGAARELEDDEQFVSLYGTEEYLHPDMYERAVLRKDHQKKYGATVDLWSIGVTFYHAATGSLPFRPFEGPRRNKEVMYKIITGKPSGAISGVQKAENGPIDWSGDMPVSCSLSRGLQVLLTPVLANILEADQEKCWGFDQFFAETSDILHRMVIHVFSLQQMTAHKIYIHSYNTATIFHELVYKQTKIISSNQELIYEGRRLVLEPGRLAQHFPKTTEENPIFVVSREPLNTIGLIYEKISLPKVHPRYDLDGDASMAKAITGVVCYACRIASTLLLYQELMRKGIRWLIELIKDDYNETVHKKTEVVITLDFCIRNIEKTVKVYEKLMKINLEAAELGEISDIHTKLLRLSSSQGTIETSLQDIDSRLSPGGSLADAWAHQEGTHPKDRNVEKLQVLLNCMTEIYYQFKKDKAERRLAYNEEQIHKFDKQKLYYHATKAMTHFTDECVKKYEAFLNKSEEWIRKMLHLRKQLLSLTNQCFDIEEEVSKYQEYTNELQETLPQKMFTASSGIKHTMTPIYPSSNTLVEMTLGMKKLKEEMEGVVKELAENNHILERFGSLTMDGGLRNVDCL
Method in brief: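 TBK1 enzyme and substrate incubated with compounds (10-point 1:4 dilution, top 30 uM final, 1% DMSO) for 90 min at 25° C, then stopped. Substrate/product peaks read by microfluidic mobility-shift (Caliper LabChip); 10 uM staurosporine as full-inhibition control.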

IKKε = target: T2, IKKε (Homo sapiens, UniProt Q14164); assay: IKKe Biochemical Assay; conditions: read-out: IKKε IC50
T2 sequence (Q14164 1-716): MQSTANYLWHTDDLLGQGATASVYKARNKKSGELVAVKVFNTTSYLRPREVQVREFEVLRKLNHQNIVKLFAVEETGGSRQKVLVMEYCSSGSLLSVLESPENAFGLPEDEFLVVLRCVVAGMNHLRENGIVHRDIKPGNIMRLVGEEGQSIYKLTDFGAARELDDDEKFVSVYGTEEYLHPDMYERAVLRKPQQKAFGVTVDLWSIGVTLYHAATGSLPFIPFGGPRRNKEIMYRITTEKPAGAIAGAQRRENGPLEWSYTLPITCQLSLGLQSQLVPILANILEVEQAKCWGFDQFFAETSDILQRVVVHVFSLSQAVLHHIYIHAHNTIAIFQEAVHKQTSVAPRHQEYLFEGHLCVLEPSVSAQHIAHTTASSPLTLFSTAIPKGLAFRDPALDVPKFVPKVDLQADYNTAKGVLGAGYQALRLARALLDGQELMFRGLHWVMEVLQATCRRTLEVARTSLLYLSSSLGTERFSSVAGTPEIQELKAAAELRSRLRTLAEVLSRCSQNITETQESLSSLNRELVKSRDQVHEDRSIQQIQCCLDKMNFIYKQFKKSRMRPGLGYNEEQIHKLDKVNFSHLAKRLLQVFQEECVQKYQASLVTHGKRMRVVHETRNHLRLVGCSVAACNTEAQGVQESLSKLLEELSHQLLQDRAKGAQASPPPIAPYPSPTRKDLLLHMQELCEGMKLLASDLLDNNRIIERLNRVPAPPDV
Method in brief: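 Recombinant IKKε and substrate were incubated with compound (10-point 1:4 series, top 30 uM final, 1% DMSO) for 90 min at 25° C, then stopped. Substrate-to-product conversion was read by LabChip microfluidic mobility shift; 10 uM staurosporine served as full-inhibition wells.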

[1] = tested on: phosphorylation of the IRF-3 protein in MDA-MB-468 cells; assay: pIRF3 immunocytochemistry cell based assay; conditions: Homo sapiens
Method in brief: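 MDA-MB-468 cells got compounds (10-point, 3-fold from 10 uM) for 1 h at 37 °C, then 10 ug/ml Poly(I:C) for 2 h. Fixed, permeabilized cells were immunostained for pIRF3 with AlexaFluor488 and counterstained with PI. % phosphorylation was read by laser scanning cytometry, and IC50 curves were fitted.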

[2] = MDA-MB-468 cells, Poly(I:C) stimulation, read-out: pIRF3 IC50

Row | SMILES | IC50 (TBK1) | IC50 (IKKε) | IC50 [1, 2] | IC50 ([1]; MDA-MB-468, read-out: pIRF3 IC50)
1 | COc1cc(C(=O)N[C@@H]2CN3CCC2CC3)ncc1-c1cc2nccc(-c3ccc(N4CC[C@@H](F)C4)c(C#N)c3)c2o1 [Compound 445, 5-{7-[3-Cyano-4-((R)-3-fluoro-pyrrolidin-1-yl)-phenyl]-furo[3,2-b]pyridin-2-yl}-4-methoxy-pyridine-2-carboxylic acid (1-aza-bicyclo[2.20.2]oct-3-yl)-amide] | < 100 nM | < 100 nM | < 100 nM | 
2 | COc1cc(C(=O)N2CC[C@H](N(C)C)C2)cnc1-c1cc2nccc(-c3ccc(N4CC[C@H](F)C4)c(C#N)c3)c2o1 [Compound 447, 5-{2-[5-((S)-3-Dimethylamino-pyrrolidine-1-carbonyl)-3-methoxy-pyridin-2-yl]-furo[3,2-b]pyridin-7-yl}-2-((S)-3-fluoro-pyrrolidin-1-yl)-benzonitrile] | < 100 nM | < 100 nM | < 100 nM | 
3 | COc1cc(C(=O)N2CC[C@H](N(C)C)C2)cnc1-c1cc2nccc(-c3ccc(N4CC[C@@H](F)C4)c(C#N)c3)c2o1 [Compound 448, 5-{2-[5-((S)-3-Dimethylamino-pyrrolidine-1-carbonyl)-3-methoxy-pyridin-2-yl]-furo[3,2-b]pyridin-7-yl}-2-((R)-3-fluoro-pyrrolidin-1-yl)-benzonitrile] | < 100 nM | < 100 nM | < 100 nM | 
4 | COc1cc(C(=O)N2CC[C@H](N(C)C)C2)ncc1-c1cc2nccc(-c3ccc(N4CC[C@H](F)C4)c(C#N)c3)c2o1 [Compound 449, 5-[2-(6-[[(3S)-3-(dimethylamino)pyrrolidin-1-yl]carbonyl]-4-methoxypyridin-3-yl)furo[3,2-b]pyridin-7-yl]-2-[(3S)-3-fluoropyrrolidin-1-yl]benzonitrile] | < 100 nM | < 100 nM | < 100 nM | 
5 | COc1cc(C(=O)N2CC[C@@H](N(C)C)C2)ncc1-c1cc2nccc(-c3ccc(N4CC[C@H](F)C4)c(C#N)c3)c2o1 [Compound 450, 5-[2-(6-[[(3R)-3-(dimethylamino)pyrrolidin-1-yl]carbonyl]-4-methoxypyridin-3-yl)furo[3,2-b]pyridin-7-yl]-2-[(3S)-3-fluoropyrrolidin-1-yl]benzonitrile] | < 100 nM | < 100 nM | 100 to 1000 nM | 
6 | COc1cc(C(=O)NC2C3COCC32)ncc1-c1cc2nccc(-c3ccc(N4CC[C@H](F)C4)c(C#N)c3)c2o1 (stereo partly drawn) [Compound 451, 5-(7-[3-cyano-4-[(3S)-3-fluoropyrrolidin-1-yl]phenyl]furo[3,2-b]pyridin-2-yl)-4-methoxy-N-[3-oxabicyclo[3.1.0]hexan-6-yl]pyridine-2-carboxamide] | < 100 nM | < 100 nM | 100 to 1000 nM | 
7 | COc1cc(C(=O)N2CC3CN(C)CC3C2)cnc1-c1cc2nccc(-c3ccc(N4CC[C@@H](F)C4)c(C#N)c3)c2o1 (stereo partly drawn) [Compound 452, 2-[(3R)-3-fluoropyrrolidin-1-yl]-5-[2-[3-methoxy-5-([5-methyl-octahydropyrrolo[3,4-c]pyrrol-2-yl]carbonyl)pyridin-2-yl]furo[3,2-b]pyridin-7-yl]benzonitrile] | < 100 nM | < 100 nM |  | 100 to 1000 nM
8 | COc1cc(C(=O)N2CC[C@@H](N(C)C)C2)cnc1-c1cc2nccc(-c3ccc(N4CCC(F)C4)c(C#N)c3)c2o1 (stereo partly drawn) [Compound 454, 5-[2-(5-[[(3R)-3-(dimethylamino)pyrrolidin-1-yl]carbonyl]-3-methoxypyridin-2-yl)furo[3,2-b]pyridin-7-yl]-2-(3-fluoropyrrolidin-1-yl)benzonitrile] | < 100 nM | < 100 nM | 100 to 1000 nM | 
9 | COc1cc(C(=O)N2CC[C@@H](N(C)C)C2)cnc1-c1cc2nccc(-c3ccc(N4CC[C@H](F)C4)c(C#N)c3)c2o1 [Compound 455, 5-[2-(5-[[(3R)-3-(dimethylamino)pyrrolidin-1-yl]carbonyl]-3-methoxypyridin-2-yl) (S)-furo[3,2-b]pyridin-7-yl]-2-(3-fluoropyrrolidin-1-yl)benzonitrile] | < 100 nM | < 100 nM | < 100 nM | 
10 | COc1cc(C(=O)N2CC[C@@H](N(C)C)C2)cnc1-c1cc2nccc(-c3ccc(N4CC[C@@H](F)C4)c(C#N)c3)c2o1 [Compound 456, 5-[2-(5-[[(3R)-3-(dimethylamino)pyrrolidin-1-yl]carbonyl]-3-methoxypyridin-2-yl) (R)-furo[3,2-b]pyridin-7-yl]-2-(3-fluoropyrrolidin-1-yl)benzonitrile] | < 100 nM | < 100 nM | < 100 nM | 
11 | COc1cc(C(=O)N2CC[C@@H](N(C)C)C2)ncc1-c1cc2nccc(-c3ccc(N4CCC(F)C4)c(C#N)c3)c2o1 (stereo partly drawn) [Compound 457, 5-[2-(6-[[(3R)-3-(dimethylamino)pyrrolidin-1-yl]carbonyl]-4-methoxypyridin-3-yl)furo[3,2-b]pyridin-7-yl]-2-(3-fluoropyrrolidin-1-yl)benzonitrile] | < 100 nM | < 100 nM | < 100 nM | 
12 | COc1cc(C(=O)N2CC[C@@H](N(C)C)C2)ncc1-c1cc2nccc(-c3ccc(N4CC[C@@H](F)C4)c(C#N)c3)c2o1 [Compound 459, 5-[2-(6-[[(3R)-3-(dimethylamino)pyrrolidin-1-yl]carbonyl]-4-methoxypyridin-3-yl)furo[3,2-b]pyridin-7-yl]-2-[(3R)-3-fluoropyrrolidin-1-yl]benzonitrile] | < 100 nM | < 100 nM | < 100 nM | 
13 | COc1cc(C(=O)N2CCN(C)CC2)cnc1-c1cc2nccc(-c3ccc(N4CCC(F)C4)c(C#N)c3)c2o1 (stereo not drawn) [Compound 460, 2-(3-fluoropyrrolidin-1-yl)-5-(2-[3-methoxy-5-[(4-methylpiperazin-1-yl)carbonyl]pyridin-2-yl]furo[3,2-b]pyridin-7-yl)benzonitrile] | < 100 nM | < 100 nM | 100 to 1000 nM | 
14 | COc1cc(C(=O)N2CCN(C)CC2)cnc1-c1cc2nccc(-c3ccc(N4CC[C@H](F)C4)c(C#N)c3)c2o1 [Compound 461, 2-(3(S)-fluoropyrrolidin-1-yl)-5-(2-[3-methoxy-5-[(4-methylpiperazin-1-yl)carbonyl]pyridin-2-yl]furo[3,2-b]pyridin-7-yl)benzonitrile] | < 100 nM | < 100 nM | < 100 nM | 
15 | COc1cc(C(=O)N2CCN(C)CC2)cnc1-c1cc2nccc(-c3ccc(N4CC[C@@H](F)C4)c(C#N)c3)c2o1 [Compound 462, 2-(3(R)-fluoropyrrolidin-1-yl)-5-(2-[3-methoxy-5-[(4-methylpiperazin-1-yl)carbonyl]pyridin-2-yl]furo[3,2-b]pyridin-7-yl)benzonitrile] | < 100 nM | < 100 nM | < 100 nM | 
16 | COc1cc(C(=O)N2CCN(C)CC2)ncc1-c1cc2nccc(-c3ccc(N4CC[C@H](F)C4)c(C#N)c3)c2o1 [Compound 463, 2-((S)-3-Fluoro-pyrrolidin-1-yl)-5-{2-[4-methoxy-6-(4-methyl-piperazine-1-carbonyl)-pyridin-3-yl]-furo[3,2-b]pyridin-7-yl}-benzonitrile] | < 100 nM | < 100 nM | < 100 nM | 
